Laboratory results taken from article PMC5104425, “A Novel Selective Inhibitor of Delta-5 Desaturase Lowers Insulin Resistance and Reduces Body Weight in Diet-Induced Obese C57BL/6J Mice” (PLoS ONE, 2016).
Structures can show the parent of a compound that is named as a salt.

Tests used:
Format in all cases: in vivo, C57BL/6J mice
[1] = system: D5D; experiment: Blood fatty acids (PD markers AA, DGLA, EPA, DHA) after 6-week treatment in DIO mice; details: sibutramine 30 mg/kg, 6 weeks
Method: Fatty acids were extracted from blood and tissues by adding hexane-isopropanol-butylated hydroxytoluene (60:40:0.01, v/v/w). Samples were vortexed for 30 min. The hexane phase was removed and evaporated to dryness under nitrogen stream and vacuum. Dried samples were dissolved in methanol and analyzed by HPLC.
(§1) Mice were fed a high-fat diet (HFD) that has 60% kcal from fat and contains 0.09% (w/w) AA (D12492; Research diets, Inc., see S1 Table for fatty acid profile) from 5 weeks of age, and they were divided into 5 groups (7 animals per group) at 11 weeks of age based on BW and daily food intake. In this experiment, 30 mg/kg sibutramine, a […], was used as a positive control for anti-obesity effects. Mice were orally administered compound-326 at doses of 0.1, 1, and 10 mg/kg, sibutramine at a dose of 30 mg/kg, or vehicle for 6 weeks. After 6 weeks, blood concentrations of DGLA and AA under non-fasting condition were evaluated as pharmacodynamics (PD) markers, and oral glucose tolerance test (OGTT) was performed.

[2] = system: DIO mice; experiment: Oral glucose tolerance test and HOMA-IR after 6-week treatment in DIO mice; details: sibutramine 30 mg/kg, 6 weeks
Method: as §1
On the last day of the experiment, mice were given an oral glucose load (2 g/kg) after overnight fasting. Blood samples were collected at specified time points of 0 (pre-glucose/fasting glucose levels), 10, 30, 60, and 120 min post glucose load for the determination of plasma glucose as well as insulin levels. Plasma glucose was enzymatically measured with auto-analyzer 7180 (Hitachi High-Technologies Corporation, Tokyo, Japan). Plasma insulin was measured with mouse insulin ELISA kit (Shibayagi, Gunma, Japan). The total area under the glucose curve was determined from time 0 to 120 min (AUC0–120 min) after glucose administration. Homeostasis model assessment-insulin […] (HOMA-IR) was calculated using the formula: [(fasted PG: mg/dL)×(fasted insulin; μU/mL)[…]/405] [28].

[3] = system: DIO mice; experiment: Anti-obesity effects in DIO mice, 6-week treatment (HFD D12492): BW, calorie intake, observations; details: sibutramine 30 mg/kg p.o.
Method: In this report, we performed 3 independent studies in DIO mice to characterize anti-obesity effects of our D5D specific inhibitor. Male C57BL/6J mice were obtained from Charles River Laboratories (Yokohama, Japan) or CLEA Japan (Osaka, Japan). The mice were fed a laboratory chow and water ad libitum and housed in a 12-h light/dark cycle. Compound or vehicle was administered once daily between 15: 00–19:00 by oral gavage. Body weight (BW) and food intake were monitored throughout the experiment.
as §1

CC(C)CC(N(C)C)C1(c2ccc(Cl)cc2)CCC1 (stereo not drawn) [sibutramine, Sibutramine hydrochloride monohydrate, reference compound]
blood AA level [1]: slightly but significantly decreased
blood AA to DGLA ratio [1]: slightly but significantly decreased
blood DGLA level [1]: slightly but significantly decreased
HOMA-IR [2]: significantly improved
BW ([3]; 6 weeks, BW then increased in line with food intake): potent BW loss for a week
food intake ([3]; from day 1, followed by a rebound): transient and potent decrease in food intake
